Experimental data taken from US6090605A, “Purified porcine kidney L-fucose kinase” (The Board of Trustees of the University of Arkansas, priority 1998, dated 2000).

Experiments:
pig kidney fucokinase [1] = biological target: T1, pig kidney fucokinase (Sus scrofa, UniProt I3LTC2); assay: Inhibition of fucokinase by GDP-L-fucose and other GDP-linked sugars; type: biochemical
T1 construct: L-Fucokinase was purified to apparent homogeneity from the cytosolic fraction of pig kidney; from tissue; host or cells: pig kidney, cytosolic fraction
T1 sequence (I3LTC2 1-1083): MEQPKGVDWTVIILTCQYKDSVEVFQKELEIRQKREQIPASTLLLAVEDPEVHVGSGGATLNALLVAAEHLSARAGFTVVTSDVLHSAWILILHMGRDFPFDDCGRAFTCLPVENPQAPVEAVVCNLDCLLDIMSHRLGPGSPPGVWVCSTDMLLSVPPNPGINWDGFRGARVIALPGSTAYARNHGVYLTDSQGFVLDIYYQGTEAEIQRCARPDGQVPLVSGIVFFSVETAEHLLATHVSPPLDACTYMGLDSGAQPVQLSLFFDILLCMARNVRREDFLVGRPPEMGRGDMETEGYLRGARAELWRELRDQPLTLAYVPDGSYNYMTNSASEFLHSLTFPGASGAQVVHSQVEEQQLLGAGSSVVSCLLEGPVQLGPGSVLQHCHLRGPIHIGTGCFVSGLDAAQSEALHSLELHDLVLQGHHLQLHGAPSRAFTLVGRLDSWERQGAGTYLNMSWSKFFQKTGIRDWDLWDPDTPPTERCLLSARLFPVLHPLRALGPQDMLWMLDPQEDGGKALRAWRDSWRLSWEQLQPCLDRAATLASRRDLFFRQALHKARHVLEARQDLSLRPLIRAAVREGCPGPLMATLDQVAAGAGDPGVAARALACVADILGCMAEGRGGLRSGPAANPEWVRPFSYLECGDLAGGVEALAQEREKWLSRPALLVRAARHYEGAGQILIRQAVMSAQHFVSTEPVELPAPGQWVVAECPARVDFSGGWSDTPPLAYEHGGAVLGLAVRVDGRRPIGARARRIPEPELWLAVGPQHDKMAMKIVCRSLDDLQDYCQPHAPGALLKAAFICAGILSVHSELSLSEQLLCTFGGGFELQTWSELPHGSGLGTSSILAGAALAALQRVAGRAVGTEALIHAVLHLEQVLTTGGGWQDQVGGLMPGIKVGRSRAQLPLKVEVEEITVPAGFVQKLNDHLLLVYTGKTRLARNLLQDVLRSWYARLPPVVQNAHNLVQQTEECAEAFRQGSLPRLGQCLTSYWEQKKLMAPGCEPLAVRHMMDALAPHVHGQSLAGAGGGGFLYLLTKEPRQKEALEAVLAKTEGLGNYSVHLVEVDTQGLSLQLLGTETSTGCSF
Procedure: (§1) Fucokinase activity was assayed by measuring the production of L-fucose-1-Pfrom [^3 H]L-fucose and ATP. The incubation mixtures contained the following components (final concentrations) in a total volume of 150 μl: L-fucose, 0.1 mM; ATP, 5 mM; MgSO4, 5 mM; Tris-HCl buffer, pH 8.0, 65 mM; and various amounts of enzyme at the different stages of purification. Incubations were at 37° C. for 10 minutes, and reactions were terminated by heating the reaction mixtures in a boiling water bath for 1 minute. The incubation mixtures were then applied to a column of DE-52 contained in a Pasteur pipette, and the column was washed with at least 5 column volumes of 10 mM (NH4)HCO3 to remove the unbound material. The [^3 H]fucose-1-P was then eluted with 500 mM (NH4)HCO3. Aliquots of the eluates were assayed for their radioactive content by subjecting a portion to scintillation counting.
It can be seen that the amount of inhibition of fucokinase increased with increasing amounts of GDP-L-fucose, and the Ki for GDP-L-fucose was estimated to be about 10 μM.

pig kidney fucokinase [2] = biological target: T1, pig kidney fucokinase; assay: Sugar specificity of purified fucokinase (radiolabeled sugars as phosphate acceptors); type: biochemical
Procedure: as §1
The specificity of the kinase for various sugar substrates was examined in two different ways. In the first set of experiments, various radiolabeled sugars were tested as phosphate acceptors for the purified enzyme using the ion-exchange chromatography method for assay of activity. […] D-Arabinose, which has the same configuration at carbons 1 through 4 as L-fucose, was also a reasonable substrate for phosphorylation, and was about 10% as effective as L-fucose. On the other hand, all of the other sugars were ineffective as phosphate acceptors.

pig kidney fucokinase [3] = biological target: T1, pig kidney fucokinase; assay: Inhibition of [3H]L-fucose phosphorylation by unlabeled monosaccharides; type: biochemical; settings: unlabeled monosaccharide 500 μM; radiolabeled L-fucose substrate 100 μM
Procedure: as §1
Although it was possible to get a reasonable assessment of the sugar specificity of the kinase from the above experiment, it was not possible to test sugars such as D-fucose, since these sugars are not available in radioactive form. Thus, these unlabeled sugars were tested for their ability to inhibit the phosphorylation of [^3 H]L-fucose. The rationale for this experiment is that a sugar that inhibits the phosphorylation of L-fucose would probably compete with L-fucose for the phosphorylation (i.e., active) site.

[4] = test system: pig liver L-fucokinase preparation; settings: cited from earlier work
pig kidney fucokinase [5] = biological target: T1, pig kidney fucokinase; assay: Specificity of fucokinase for phosphate donor (nucleotides); type: biochemical; settings: nucleotide added at 1 mM as phosphate donor
Procedure: as §1
The specificity of the nucleoside triphosphate was also examined by testing the ability of a variety of nucleotides to serve as phosphate donors in the phosphorylation of [^3 H]L-fucose. […] In addition, no activity is observed with any nucleoside diphosphates or monophosphates.

[6] = biological target: T2, pig kidney fucokinase (110 kDa band) (Sus scrofa, UniProt I3LTC2); assay: Photoaffinity labeling of the fucokinase with 8-azido-ATP[32P]; type: binding; settings: unlabeled ATP 0.3-1.2 mM; GTP, ITP 0.6 and 1.2 mM
T2 construct: L-Fucokinase was purified to apparent homogeneity from the cytosolic fraction of pig kidney; from tissue; host or cells: pig kidney, cytosolic fraction
T2 sequence (I3LTC2 1-1083): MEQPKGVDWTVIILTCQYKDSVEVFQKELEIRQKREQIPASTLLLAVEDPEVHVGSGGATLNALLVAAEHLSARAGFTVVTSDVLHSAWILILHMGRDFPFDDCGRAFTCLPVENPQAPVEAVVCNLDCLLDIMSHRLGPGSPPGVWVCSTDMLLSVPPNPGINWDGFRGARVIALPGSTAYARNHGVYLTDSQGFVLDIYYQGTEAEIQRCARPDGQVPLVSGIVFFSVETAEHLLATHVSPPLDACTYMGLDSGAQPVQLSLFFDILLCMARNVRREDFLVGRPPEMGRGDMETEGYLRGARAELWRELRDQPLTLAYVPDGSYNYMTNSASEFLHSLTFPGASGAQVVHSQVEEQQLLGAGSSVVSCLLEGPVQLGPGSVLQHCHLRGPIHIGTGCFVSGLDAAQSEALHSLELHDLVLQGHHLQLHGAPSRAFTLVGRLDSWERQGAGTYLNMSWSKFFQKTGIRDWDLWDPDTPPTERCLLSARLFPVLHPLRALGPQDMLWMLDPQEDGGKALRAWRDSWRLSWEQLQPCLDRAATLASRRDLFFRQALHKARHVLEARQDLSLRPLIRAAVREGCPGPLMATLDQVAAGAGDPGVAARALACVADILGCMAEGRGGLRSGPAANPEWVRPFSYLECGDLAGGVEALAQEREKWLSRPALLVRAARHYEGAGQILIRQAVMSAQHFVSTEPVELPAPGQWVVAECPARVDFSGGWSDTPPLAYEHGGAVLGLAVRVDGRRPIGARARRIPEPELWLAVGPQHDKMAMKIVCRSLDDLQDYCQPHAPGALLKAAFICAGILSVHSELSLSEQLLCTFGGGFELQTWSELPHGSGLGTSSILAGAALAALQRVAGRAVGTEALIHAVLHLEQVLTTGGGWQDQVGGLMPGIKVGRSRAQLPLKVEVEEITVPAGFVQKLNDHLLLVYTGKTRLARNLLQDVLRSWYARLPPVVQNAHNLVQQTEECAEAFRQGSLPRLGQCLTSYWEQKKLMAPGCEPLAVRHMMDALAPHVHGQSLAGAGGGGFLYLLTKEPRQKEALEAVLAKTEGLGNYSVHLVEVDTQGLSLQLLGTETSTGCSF
Procedure: The purified enzyme was incubated for 20 seconds with azido-ATP[^32 P], and the mixture was exposed to UV for 90 seconds. The reaction was stopped by adding loading buffer and the mixture subjected to SDS-PAGE. Radioactive bands were detected by exposure to film. Lanes are as follows: Lane 1, Probe+enzyme, but no UV; Lane 2, Probe+enzyme+UV; Lanes 3 through 6. Probe+enzyme+0.3, 0.6, 0.9, and 1.2 mM ATP+exposure to UV light; lanes 7 and 8, 0.6 and 1.2 mM GTP+probe+exposure to UV light: lanes 9 and 10, 0.6 and 1.2 mM ITP+probe+exposure to UV light. In lanes 11 and 12, the enzyme was incubated with N3 -GTP[^32 P ] and then exposed to UV light (lane 12) or not exposed to UV light (lane 11). Lane 13 is a control of enzyme+N3 -ATP[^32 P]+exposure to UV light.
Enzyme, at various stages of purity, was mixed with 8-azido-ATP[^32 P] in buffer, and allowed to incubate for 20 sec. in an ice bath. 8-Azido-ATP[^32 P] was prepared as previously described (16). After incubation, the reaction mixture was exposed to short wave UV light for about 90 sec. to activate the azido group, and the protein was subjected to SDS gel electrophoresis to separate the proteins. The gels were dried and exposed to film to locate the radioactive bands and were also stained with Coomassie blue to locate the various proteins. The specificity of the labeling was determined by examining the effect of various concentrations of unlabeled ATP or other nucleotides on the labeling of the protein by N3 -ATP[^32 P]. Various controls were also run, such as one in which exposure to UV was omitted.
Lanes 11-13 of FIG. 3 show the results of another experiment designed to determine whether 8-N3 -GTP[^32 P] could label the fucokinase. […] These experiments indicate that the fucokinase is quite specific for ATP.

[7] = test system: pig liver L-fucokinase preparation; settings: cited from earlier work; remark: listed apart in the source
[8] = substrate: C[C@H](O)[C@@H](O)[C@@H](O)[C@H](O)C=O; assay: Effect of substrate concentration on velocity (Lineweaver-Burke, Km); type: biochemical, pig; settings: other: 5 mM ATP and 5 mM Mg++; pH 8.0; 37.0 °C
Procedure: as §1
(§2) The effect of concentration of the substrates, L-fucose and ATP, on the velocity of the reaction was determined. The Km for L-fucose was determined at saturating concentrations of the other substrates, i.e., 5 mM ATP and 5 mM Mg^++. […] A similar experiment was performed with ATP. In this case, the reactions were done in the presence of 5 mM Mg^++ and 100 μM L-fucose. The Km for ATP was estimated to be 600 μM (data not shown).

[9] = substrate: Nc1ncnc2c1ncn2[C@@H]1O[C@H](COP(=O)(O)OP(=O)(O)OP(=O)(O)O)[C@@H](O)[C@H]1O; assay: as above; type: biochemical, pig; settings: other: 5 mM Mg++ and 100 μM L-fucose; pH 8.0; 37.0 °C
Procedure: as §1, §2

## C[C@@H]1O[C@H](OP(=O)(O)O)[C@@H](O)[C@H](O)[C@@H]1O [L-fucose-1-P]
Pig kidney fucokinase [1]
  inhibition of the fucokinase (in words): did not inhibit

## O=C[C@H](O)[C@@H](O)[C@@H](O)[C@H](O)CO [D-galactose]
Pig kidney fucokinase [2]; purified enzyme
  activity as phosphate acceptor (in words): does not phosphorylate
Pig kidney fucokinase [2]; radiolabeled sugar 100 μM as phosphate acceptor
  Specific Activity: 0 nmole/mg protein
Pig kidney fucokinase [3]
  Relative Activity (%): 100%
[4]
  rate of phosphorylation compared with L-fucose (in words): about the same rate or better

## Nc1nc2c(ncn2[C@@H]2O[C@H](COP(=O)(O)OP(=O)(O)OP(=O)(O)O)[C@@H](O)[C@H]2O)c(=O)[nH]1 [GTP]
Pig kidney fucokinase [5]
  Specific Activity: 0.09 nmoles/mg protein/10 min
[6]
  inhibition of labeling of the 110 kDa band by N3-ATP[32P] (in words): considerably less effective in inhibiting
[7]
  use as phosphate donor (in words): could also use

## C[C@@H]1O[C@H](OP(=O)(O)OP(=O)(O)OC[C@H]2O[C@@H](n3cnc4c(=O)[nH]c(N)nc43)[C@H](O)[C@@H]2O)[C@@H](O)[C@H](O)[C@@H]1O [GDP-L-fucose]
Pig kidney fucokinase [1]; 100 μM [3H]fucose, 5 mM ATP, 5 mM Mg++, pH 8.0
  Ki: ~10 µM

B1: pig kidney fucokinase (Sus scrofa) (protein)
chain: MEQPKGVDWTVIILTCQYKDSVEVFQKELEIRQKREQIPASTLLLAVEDPEVHVGSGGATLNALLVAAEHLSARAGFTVVTSDVLHSAWILILHMGRDFPFDDCGRAFTCLPVENPQAPVEAVVCNLDCLLDIMSHRLGPGSPPGVWVCSTDMLLSVPPNPGINWDGFRGARVIALPGSTAYARNHGVYLTDSQGFVLDIYYQGTEAEIQRCARPDGQVPLVSGIVFFSVETAEHLLATHVSPPLDACTYMGLDSGAQPVQLSLFFDILLCMARNVRREDFLVGRPPEMGRGDMETEGYLRGARAELWRELRDQPLTLAYVPDGSYNYMTNSASEFLHSLTFPGASGAQVVHSQVEEQQLLGAGSSVVSCLLEGPVQLGPGSVLQHCHLRGPIHIGTGCFVSGLDAAQSEALHSLELHDLVLQGHHLQLHGAPSRAFTLVGRLDSWERQGAGTYLNMSWSKFFQKTGIRDWDLWDPDTPPTERCLLSARLFPVLHPLRALGPQDMLWMLDPQEDGGKALRAWRDSWRLSWEQLQPCLDRAATLASRRDLFFRQALHKARHVLEARQDLSLRPLIRAAVREGCPGPLMATLDQVAAGAGDPGVAARALACVADILGCMAEGRGGLRSGPAANPEWVRPFSYLECGDLAGGVEALAQEREKWLSRPALLVRAARHYEGAGQILIRQAVMSAQHFVSTEPVELPAPGQWVVAECPARVDFSGGWSDTPPLAYEHGGAVLGLAVRVDGRRPIGARARRIPEPELWLAVGPQHDKMAMKIVCRSLDDLQDYCQPHAPGALLKAAFICAGILSVHSELSLSEQLLCTFGGGFELQTWSELPHGSGLGTSSILAGAALAALQRVAGRAVGTEALIHAVLHLEQVLTTGGGWQDQVGGLMPGIKVGRSRAQLPLKVEVEEITVPAGFVQKLNDHLLLVYTGKTRLARNLLQDVLRSWYARLPPVVQNAHNLVQQTEECAEAFRQGSLPRLGQCLTSYWEQKKLMAPGCEPLAVRHMMDALAPHVHGQSLAGAGGGGFLYLLTKEPRQKEALEAVLAKTEGLGNYSVHLVEVDTQGLSLQLLGTETSTGCSF
notes: L-Fucokinase was purified to apparent homogeneity from the cytosolic fraction of pig kidney; from tissue; host or cells: pig kidney, cytosolic fraction
[8]
  Km: 27 µM
[9]
  Km: 600 µM
